Laboratory results published in US20260226068A1, “IMIDAZOTRIAZINE IL-17A MODULATORS AND USES THEREOF” (DICE ALPHA, INC., priority 2023, published 2026).

What was measured:
IL-17A/A = target: T1, IL-17A/A (Homo sapiens, UniProt Q16552); test: IL-17A/A HEK-Blue cell assay (SEAP reporter); assay type: cell-based; details: HEK-Blue IL-17A reporter cells, IL17A/A 5 ng/mL, 20 hours, SEAP read at A630; read-out: HEK-Blue IL17AA (IC50 for IL-17A/A inhibition)
T1 construct: purchased Genscript Z03228
T1 sequence (Q16552 24-155): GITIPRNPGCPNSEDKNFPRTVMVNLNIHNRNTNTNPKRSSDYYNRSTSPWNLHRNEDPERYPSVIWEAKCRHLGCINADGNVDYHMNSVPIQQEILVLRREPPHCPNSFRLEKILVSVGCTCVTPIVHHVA

IL-17A/F = target: T2, IL-17A/F (Homo sapiens, UniProt Q16552+Q96PD4); test: IL-17A/F HEK-Blue cell assay (SEAP reporter); assay type: cell-based; details: HEK-Blue IL-17A reporter cells, IL17A/F 5 ng/mL, 20 hours, SEAP read at A630; read-out: HEK-Blue IL17AF (IC50 for IL-17A/F inhibition)
T2 construct: purchased R&D Systems
T2 sequence (Q16552 24-155): T1 sequence (Q16552 24-155)
T2 sequence (Q96PD4 31-163): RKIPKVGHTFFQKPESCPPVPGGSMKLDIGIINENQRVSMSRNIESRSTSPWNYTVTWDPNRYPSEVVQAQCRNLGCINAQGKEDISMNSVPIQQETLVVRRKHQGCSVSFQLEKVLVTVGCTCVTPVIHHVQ

Compound | IC50 (IL-17A/A) | IC50 (IL-17A/F)
CCn1nccc1C(=O)N[C@H](c1cn2nc(C[C@H]3C[C@@H](C(F)(F)F)CNC3=O)c(N3CC4CCC(C3)N4C)nc2n1)C1CCC(F)(F)CC1 [Compound 361, N-((1S)-(4,4-difluorocyclohexyl)(3-(8-methyl-3,8-diazabicyclo[3.2.1]octan-3-yl)-2-(((3R,5R)-2-oxo-5-(trifluoromethyl)piperidin-3-yl)methyl)imidazo[1,2-b][1,2,4]triazin-6-yl)methyl)-1-ethyl-1H-pyrazole-5-carboxamide] | < 100 nM | 100 to 1000 nM
CN(C)CCn1nccc1C(=O)N[C@H](c1cn2nc(C[C@H]3C[C@@H](C(F)(F)F)CNC3=O)c(C3CCOCC3)nc2n1)C1CCC(F)(F)CC1 [Compound 362, N—((S)-(4,4-difluorocyclohexyl)(2-(((3R,5R)-2-oxo-5-(trifluoromethyl)piperidin-3-yl)methyl)-3-(tetrahydro-2H-pyran-4-yl)imidazo[1,2-b][1,2,4]triazin-6-yl)methyl)-1-(2-(dimethylamino)ethyl)-1H-pyrazole-5-carboxamide] | 100 to 1000 nM | > 1000 nM
CCn1ncnc1C(=O)N[C@H](c1cn2nc(C[C@H]3C[C@@H](C(F)(F)F)CNC3=O)c(C3CCOCC3)nc2n1)C1CCC(F)(F)CC1 [Compound 363, N—((S)-(4,4-difluorocyclohexyl)(2-(((3R,5R)-2-oxo-5-(trifluoromethyl)piperidin-3-yl)methyl)-3-(tetrahydro-2H-pyran-4-yl)imidazo[1,2-b][1,2,4]triazin-6-yl)methyl)-1-ethyl-1H-1,2,4-triazole-5-carboxamide] | < 100 nM | > 1000 nM
CCn1nncc1C(=O)N[C@H](c1cn2nc(C[C@H]3C[C@@H](C(F)(F)F)CNC3=O)c(C3CCOCC3)nc2n1)C1CCC(F)(F)CC1 [Compound 364, N—((S)-(4,4-difluorocyclohexyl)(2-(((3R,5R)-2-oxo-5-(trifluoromethyl)piperidin-3-yl)methyl)-3-(tetrahydro-2H-pyran-4-yl)imidazo[1,2-b][1,2,4]triazin-6-yl)methyl)-1-ethyl-1H-1,2,3-triazole-5-carboxamide] | < 100 nM | > 1000 nM
CCn1nccc1C(=O)N[C@H](c1cn2nc(C[C@H]3C[C@@H](C(F)(F)F)CNC3=O)c(N3CCOC(C)(C)C3)nc2n1)C1CCC(F)(F)CC1 [Compound 365, N—((S)-(4,4-difluorocyclohexyl)(3-(2,2-dimethylmorpholino)-2-(((3R,5R)-2-oxo-5-(trifluoromethyl)piperidin-3-yl)methyl)imidazo[1,2-b][1,2,4]triazin-6-yl)methyl)-1-ethyl-1H-pyrazole-5-carboxamide] | < 100 nM | 100 to 1000 nM
CCn1nccc1C(=O)N[C@H](c1cn2nc(C[C@H]3C[C@@H](C(F)(F)F)CNC3=O)c(N3CCN4CCOC[C@@H]4C3)nc2n1)C1CCC(F)(F)CC1 [Compound 366, N—((S)-(4,4-difluorocyclohexyl)(3-((S)-hexahydropyrazino[2,1-c][1,4]oxazin-8(1H)-yl)-2-(((3R,5R)-2-oxo-5-(trifluoromethyl)piperidin-3-yl)methyl)imidazo[1,2-b][1,2,4]triazin-6-yl)methyl)-1-ethyl-1H-pyrazole-5-carboxamide] | < 100 nM | < 100 nM
CCn1nccc1C(=O)N[C@H](c1cn2nc(C[C@H]3C[C@@H](C(F)(F)F)CNC3=O)c(N3CCN4CCCC[C@@H]4C3)nc2n1)C1CCC(F)(F)CC1 [Compound 367, N—((S)-(4,4-difluorocyclohexyl)(3-((R)-octahydro-2H-pyrido[1,2-a]pyrazin-2-yl)-2-(((3R,5R)-2-oxo-5-(trifluoromethyl)piperidin-3-yl)methyl)imidazo[1,2-b][1,2,4]triazin-6-yl)methyl)-1-ethyl-1H-pyrazole-5-carboxamide] | < 100 nM | < 100 nM
CCn1nccc1C(=O)N[C@H](c1cn2nc(C[C@H]3C[C@@H](C(F)(F)F)CNC3=O)c(N3CCN4CCC[C@@H]4C3)nc2n1)C1CCC(F)(F)CC1 [Compound 368, N—((S)-(4,4-difluorocyclohexyl)(3-((R)-hexahydropyrrolo[1,2-a]pyrazin-2(1H)-yl)-2-(((3R,5R)-2-oxo-5-(trifluoromethyl)piperidin-3-yl)methyl)imidazo[1,2-b][1,2,4]triazin-6-yl)methyl)-1-ethyl-1H-pyrazole-5-carboxamide] | < 100 nM | 100 to 1000 nM
CCn1nccc1C(=O)N[C@H](c1cn2nc(C[C@H]3C[C@@H](C(F)(F)F)CNC3=O)c(C3CCCCN3CCOC)nc2n1)C1CCC(F)(F)CC1 (stereo partly drawn) [Compound 369, N-((1S)-(4,4-difluorocyclohexyl)(3-(1-(2-methoxyethyl)piperidin-2-yl)-2-(((3R,5R)-2-oxo-5-(trifluoromethyl)piperidin-3-yl)methyl)imidazo[1,2-b][1,2,4]triazin-6-yl)methyl)-1-ethyl-1H-pyrazole-5-carboxamide] | 100 to 1000 nM | > 1000 nM
CCn1nccc1C(=O)N[C@H](c1cn2nc(C[C@H]3C[C@@H](C(F)(F)F)CNC3=O)c(C3CCN(CCOC)C3)nc2n1)C1CCC(F)(F)CC1 (stereo partly drawn) [Compound 370, N-((1S)-(4,4-difluorocyclohexyl)(3-(1-(2-methoxyethyl)pyrrolidin-3-yl)-2-(((3R,5R)-2-oxo-5-(trifluoromethyl)piperidin-3-yl)methyl)imidazo[1,2-b][1,2,4]triazin-6-yl)methyl)-1-ethyl-1H-pyrazole-5-carboxamide] | 100 to 1000 nM | > 1000 nM
CCn1nccc1C(=O)N[C@H](c1cn2nc(C[C@H]3C[C@@H](C(F)(F)F)CNC3=O)c(CN3CCC(F)CC3)nc2n1)C1CCC(F)(F)CC1 [Compound 371, N—((S)-(4,4-difluorocyclohexyl)(3-((4-fluoropiperidin-1-yl)methyl)-2-(((3R,5R)-2-oxo-5-(trifluoromethyl)piperidin-3-yl)methyl)imidazo[1,2-b][1,2,4]triazin-6-yl)methyl)-1-ethyl-1H-pyrazole-5-carboxamide] | < 100 nM | 100 to 1000 nM
O=C(N[C@H](c1cn2nc(C[C@H]3C[C@@H](C(F)(F)F)CNC3=O)c(C3CCOCC3)nc2n1)C1CCC(F)(F)CC1)c1nonc1OCC(F)(F)F [Compound 372, N—((S)-(4,4-difluorocyclohexyl)(2-(((3R,5R)-2-oxo-5-(trifluoromethyl)piperidin-3-yl)methyl)-3-(tetrahydro-2H-pyran-4-yl)imidazo[1,2-b][1,2,4]triazin-6-yl)methyl)-4-(2,2,2-trifluoroethoxy)-1,2,5-oxadiazole-3-carboxamide] | < 100 nM | 100 to 1000 nM
O=C(N[C@H](c1cn2nc(C[C@H]3C[C@@H](C(F)(F)F)CNC3=O)c(C3CCOCC3)nc2n1)C1CCC(F)(F)CC1)c1nonc1CN1CC(F)C1 [Compound 373, N—((S)-(4,4-difluorocyclohexyl)(2-(((3R,5R)-2-oxo-5-(trifluoromethyl)piperidin-3-yl)methyl)-3-(tetrahydro-2H-pyran-4-yl)imidazo[1,2-b][1,2,4]triazin-6-yl)methyl)-4-((3-fluoroazetidin-1-yl)methyl)-1,2,5-oxadiazole-3-carboxamide] | < 100 nM | 100 to 1000 nM
CCn1nccc1C(=O)N[C@H](c1cn2nc(C[C@H]3C[C@@H](C(F)(F)F)CNC3=O)c(CN3CCOCC3)nc2n1)[C@H]1CC[C@H](C)CC1 [Compound 374, 1-ethyl-N—((S)-((1r,4S)-4-methylcyclohexyl)(3-(morpholinomethyl)-2-(((3R,5R)-2-oxo-5-(trifluoromethyl)piperidin-3-yl)methyl)imidazo[1,2-b][1,2,4]triazin-6-yl)methyl)-1H-pyrazole-5-carboxamide] | < 100 nM | 100 to 1000 nM
CCn1nccc1C(=O)N[C@H](c1cn2nc(C[C@H]3C[C@@H](C(F)(F)F)CNC3=O)c(CN3CCC(F)(F)C3)nc2n1)[C@H]1CC[C@H](C)CC1 [Compound 375, N—((S)-(3-((3,3-difluoropyrrolidin-1-yl)methyl)-2-(((3R,5R)-2-oxo-5-(trifluoromethyl)piperidin-3-yl)methyl)imidazo[1,2-b][1,2,4]triazin-6-yl)((1r,4S)-4-methylcyclohexyl)methyl)-1-ethyl-1H-pyrazole-5-carboxamide] | < 100 nM | 100 to 1000 nM
Cn1nccc1C(=O)N[C@H](c1cn2nc(C[C@H]3C[C@@H](C(F)(F)F)CNC3=O)c(CC3COC3)nc2n1)C1CCCCCC1 [Compound 377, N—((S)-cycloheptyl(3-(oxetan-3-ylmethyl)-2-(((3R,5R)-2-oxo-5-(trifluoromethyl)piperidin-3-yl)methyl)imidazo[1,2-b][1,2,4]triazin-6-yl)methyl)-1-methyl-1H-pyrazole-5-carboxamide] | < 100 nM | 100 to 1000 nM
O=C(N[C@H](c1cn2nc(C[C@H]3C[C@@H](C(F)(F)F)CNC3=O)c(C3CCOCC3)nc2n1)C1CCC(F)(F)CC1)c1ccnn1CCN1CCOCC1 [Compound 378, N—((S)-(4,4-difluorocyclohexyl)(2-(((3R,5R)-2-oxo-5-(trifluoromethyl)piperidin-3-yl)methyl)-3-(tetrahydro-2H-pyran-4-yl)imidazo[1,2-b][1,2,4]triazin-6-yl)methyl)-1-(2-morpholinoethyl)-1H-pyrazole-5-carboxamide] | < 100 nM | > 1000 nM
CCn1nccc1C(=O)N[C@H](c1cn2nc(C[C@H]3CCCNC3=O)c(C3CCOCC3)nc2n1)C1CCC(F)(F)CC1 [Compound 379] | < 100 nM | > 1000 nM
CCn1nccc1C(=O)N[C@H](c1cn2nc(C[C@@H]3CCCNC3=O)c(C3CCOCC3)nc2n1)C1CCC(F)(F)CC1 [Compound 380] | < 100 nM | > 1000 nM
